Source: the supplement of paper PMC10307832

Assays:
Assay in all cases: relative viability (nuclei count vs DMSO), 5 days (fraction); higher = more cells survive
[1] = compound: Cn1cnc2c(F)c(Nc3ccc(Br)cc3Cl)c(C(=O)NOCCO)cc21 [Selumetinib] + COc1cc2c(Oc3ccc(NC(=O)C4(C(=O)Nc5ccc(F)cc5)CC4)cc3F)ccnc2cc1OCCCN1CCOCC1 [Foretinib] (partner 0.25 µM)
Summary of the method: (§1)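 Relative viability is defined as nuclei in treated wells over nuclei in vehicle wells. Duplicate plates were run and medians reported. Lung cancer cell lines in 1536-well plates were dosed by pin tool one day after seeding, with one drug or with a fixed anchor-drug dose plus five library-drug doses (not always all listed) in √10 steps, and nuclei were counted after 5 days.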

[2] = compound: CC1(C)CCC(CN2CCN(c3ccc(C(=O)NS(=O)(=O)c4ccc(NCC5CCOCC5)c([N+](=O)[O-])c4)c(Oc4cnc5[nH]ccc5c4)c3)CC2)=C(c2ccc(Cl)cc2)C1 [Venetoclax] + Cc1nc(Nc2ncc(C(=O)Nc3c(C)cccc3Cl)s2)cc(N2CCN(CCO)CC2)n1 [Dasatinib] (partner 0.075 µM)
Summary of the method: as §1

[3] = compound: Cn1cnc2c(F)c(Nc3ccc(Br)cc3Cl)c(C(=O)NOCCO)cc21 [Selumetinib] + N=C(N)NC(=N)NCCc1ccccc1 [Phenformin] (partner 250 µM)
Summary of the method: as §1

[4] = compound: CC1(C)CCC(CN2CCN(c3ccc(C(=O)NS(=O)(=O)c4ccc(NCC5CCOCC5)c([N+](=O)[O-])c4)c(Oc4cnc5[nH]ccc5c4)c3)CC2)=C(c2ccc(Cl)cc2)C1 [Venetoclax] + Cc1nc(NC(=O)N2CCC[C@H]2C(N)=O)sc1-c1ccnc(C(C)(C)C(F)(F)F)c1 [Alpelisib] (partner 2 µM)
Summary of the method: as §1

Cell Line | relative viability ([1]; first compound 0.02 µM) | relative viability ([1]; first compound 0.06325 µM) | relative viability ([1]; first compound 0.2 µM) | relative viability ([1]; first compound 0.6325 µM) | relative viability ([2]; first compound 0.01 µM) | relative viability ([2]; first compound 0.03162 µM) | relative viability ([2]; first compound 0.1 µM) | relative viability ([2]; first compound 0.3162 µM) | relative viability ([2]; first compound 1 µM) | relative viability ([3]; first compound 0.02 µM) | relative viability ([3]; first compound 0.06325 µM) | relative viability ([3]; first compound 0.2 µM) | relative viability ([3]; first compound 0.6325 µM) | relative viability ([4]; first compound 0.01 µM) | relative viability ([4]; first compound 0.03162 µM) | relative viability ([4]; first compound 0.1 µM) | relative viability ([4]; first compound 0.3162 µM) | relative viability ([4]; first compound 1 µM)
201T | 0.977 | 0.978 | 1.05 | 0.874 | 0.545 | 0.551 | 0.614 | 0.501 | 0.488 | 0.507 | 0.406 | 0.455 | 0.421 | 0.96 | 1.01 | 1.07 | 0.972 | 1.03
A549 | 0.779 | 0.581 | 0.546 | 0.32 |  |  |  |  |  | 0.132 | 0.14 | 0.143 | 0.0906 | 0.755 | 0.706 | 0.868 | 0.85 | 0.716
A-427 | 1.17 | 1.11 | 0.954 | 0.756 | 0.667 | 0.726 | 0.667 | 0.687 | 0.639 | 0.264 | 0.271 | 0.266 | 0.23 | 1.02 | 1.09 | 1.13 | 1.07 | 1.17
ABC-1 | 0.906 | 0.882 | 0.951 | 0.767 | 0.665 | 0.655 | 0.445 | 0.658 | 0.604 | 0.228 | 0.231 | 0.234 | 0.25 | 0.933 | 0.996 | 0.853 | 0.967 | 1.01
BEN | 0.692 | 0.714 | 0.667 | 0.546 | 0.323 | 0.362 | 0.374 | 0.34 | 0.303 | 0.281 | 0.315 | 0.252 | 0.257 | 0.976 | 1.07 | 0.756 | 1.06 | 1.01
CAL-12T | 1.05 | 1.04 | 1.14 | 0.839 | 0.286 | 0.476 | 0.381 | 0.398 | 0.314 | 0.469 | 0.392 | 0.393 | 0.353 | 1.25 | 1.08 | 1.01 | 1.43 | 1.25
COR-L23 | 0.999 | 1.01 | 0.933 | 0.934 | 0.414 | 0.505 | 0.484 | 0.495 | 0.504 | 0.464 | 0.469 | 0.519 | 0.463 | 0.7 | 0.753 | 0.745 | 0.766 | 0.741
COR-L 105 | 0.978 | 1.1 | 0.846 | 0.534 | 0.42 | 0.364 | 0.296 | 0.462 | 0.377 | 0.355 | 0.321 | 0.331 | 0.297 | 0.983 | 0.959 | 1.13 | 0.91 | 1.02
Calu-6 | 0.817 | 0.702 | 0.515 | 0.383 |  |  |  |  |  |  |  |  |  | 0.946 | 0.917 | 0.98 | 1.02 | 0.998
ChaGo-K-1 | 0.833 | 0.924 | 0.906 | 0.769 | 0.722 | 0.601 | 0.59 | 0.598 | 0.547 | 0.484 | 0.555 | 0.465 | 0.461 |  |  |  |  | 
EBC-1 | 0.0932 | 0.0928 | 0.114 | 0.109 |  |  |  |  |  |  |  |  |  | 0.815 | 0.869 | 0.806 | 0.831 | 0.875
EKVX | 0.724 | 0.675 | 0.517 | 0.568 | 0.576 | 0.641 | 0.437 | 0.567 | 0.47 | 0.22 | 0.217 | 0.214 | 0.22 | 0.82 | 1 | 0.871 | 0.982 | 0.786
EMC-BAC-2 | 0.882 | 0.972 | 0.85 | 0.875 | 0.331 | 0.343 | 0.292 | 0.327 | 0.31 | 0.559 | 0.583 | 0.552 | 0.537 | 0.707 | 0.744 | 0.747 | 0.73 | 0.687
EPLC-272H | 0.593 | 0.467 | 0.367 | 0.333 | 0.399 | 0.379 | 0.352 | 0.36 | 0.346 | 0.26 | 0.223 | 0.211 | 0.223 |  | 0.95 | 0.986 | 1.11 | 0.977
H3255 | 0.867 | 0.921 | 0.457 | 0.739 | 0.367 | 0.399 | 0.373 | 0.446 | 0.404 | 0.385 | 0.367 | 0.332 | 0.318 | 0.702 | 0.671 | 0.686 | 0.891 | 0.686
HARA | 0.905 | 0.726 | 0.71 | 0.592 | 0.422 | 0.258 | 0.228 | 0.249 | 0.216 | 0.502 | 0.387 | 0.48 | 0.299 | 0.728 | 0.822 | 0.787 | 0.891 | 0.787
HCC-15 | 0.777 | 0.637 | 0.439 | 0.293 | 0.607 | 0.627 | 0.587 | 0.645 | 0.549 | 0.37 | 0.284 | 0.231 | 0.185 | 0.872 | 0.91 | 0.723 | 0.857 | 0.735
HCC-44 |  |  |  |  |  |  |  |  |  | 0.179 | 0.187 | 0.209 | 0.184 | 0.795 | 0.745 | 0.64 | 0.754 | 0.705

Cell Line | relative viability ([1]; first compound 0.02 µM) | relative viability ([1]; first compound 0.06325 µM) | relative viability ([1]; first compound 0.2 µM) | relative viability ([1]; first compound 0.6325 µM) | relative viability ([2]; first compound 0.01 µM) | relative viability ([2]; first compound 0.03162 µM) | relative viability ([2]; first compound 0.1 µM) | relative viability ([2]; first compound 0.3162 µM) | relative viability ([2]; first compound 1 µM) | relative viability ([3]; first compound 0.02 µM) | relative viability ([3]; first compound 0.06325 µM) | relative viability ([3]; first compound 0.2 µM) | relative viability ([3]; first compound 0.6325 µM) | relative viability ([4]; first compound 0.01 µM) | relative viability ([4]; first compound 0.03162 µM) | relative viability ([4]; first compound 0.1 µM) | relative viability ([4]; first compound 0.3162 µM) | relative viability ([4]; first compound 1 µM)
HCC-78 | 0.516 | 0.435 | 0.401 | 0.449 | 0.442 | 0.441 | 0.409 | 0.323 | 0.368 | 0.667 | 0.74 | 0.601 | 0.677 | 0.371 | 0.303 | 0.313 | 0.326 | 0.361
HCC-366 | 0.866 | 0.865 | 0.755 | 0.645 | 0.618 | 0.592 | 0.523 | 0.56 | 0.54 | 0.594 | 0.607 | 0.512 | 0.361 | 0.5 | 0.425 | 0.448 | 0.501 | 0.317
HCC-827 | 0.942 | 0.983 | 0.989 | 0.86 | 0.336 | 0.368 | 0.34 | 0.33 | 0.334 | 0.4 | 0.4 | 0.42 | 0.409 | 0.954 | 0.977 | 1 | 0.976 | 0.994
HOP-62 | 1.06 | 1.02 | 0.807 | 0.504 | 0.557 | 0.582 | 0.616 | 0.709 | 0.625 | 0.753 | 0.657 | 0.624 | 0.465 | 0.924 | 1.21 | 1.08 | 1.07 | 0.9
IA-LM | 0.949 | 0.837 | 0.576 | 0.403 |  |  |  |  |  |  |  |  |  | 0.614 | 0.726 | 0.892 | 0.61 | 0.604
LC-2-ad | 0.828 | 0.722 | 0.643 | 0.533 | 0.575 | 0.612 | 0.522 | 0.671 | 0.544 | 0.557 | 0.544 | 0.532 | 0.575 | 0.839 | 0.906 | 1.02 | 0.871 | 0.905
LCLC-97TM1 | 0.898 | 0.818 | 0.585 | 0.525 | 0.856 | 0.888 | 0.764 | 0.733 | 0.802 | 0.44 | 0.43 | 0.387 | 0.399 |  | 0.317 | 0.248 | 0.241 | 0.249
LCLC-103H | 0.744 | 0.64 | 0.646 | 0.72 | 0.48 | 0.439 | 0.479 | 0.463 | 0.45 | 0.329 | 0.326 | 0.293 | 0.337 | 1.04 | 0.983 | 1.04 | 1 | 0.974
LK-2 | 1.68 | 1.51 | 0.968 | 1.23 | 0.403 | 0.319 | 0.259 | 0.247 | 0.255 | 0.561 | 0.576 | 0.539 | 0.477 | 0.993 | 1.28 | 1.12 | 1.19 | 1.06
NCI-H522 |  |  |  |  | 0.938 | 0.951 | 0.805 | 0.8 | 0.848 | 0.641 | 0.556 | 0.635 | 0.609 |  |  |  |  | 
NCI-H1299 | 1.23 | 1.08 | 1.09 | 0.935 |  |  |  |  |  |  |  |  |  | 1.02 | 1.03 | 1.06 | 1.04 | 1.03
NCI-H1623 | 0.729 | 0.679 | 0.614 | 0.632 | 0.565 | 0.595 | 0.534 | 0.515 | 0.508 | 0.54 | 0.503 | 0.483 | 0.487 |  |  |  |  | 
NCI-H1650 | 0.992 | 0.888 | 0.842 | 0.928 | 0.362 | 0.352 | 0.29 | 0.324 | 0.305 | 0.424 | 0.371 | 0.444 | 0.35 |  |  |  |  | 
NCI-H1703 | 0.438 | 0.318 | 0.369 | 0.32 |  |  |  |  |  |  |  |  |  | 0.361 | 0.436 | 0.349 | 0.385 | 0.303
NCI-H1792 |  |  |  |  | 0.843 | 0.803 | 0.556 | 0.759 | 0.755 | 0.192 |  | 0.144 | 0.229 | 0.674 | 0.669 | 0.542 | 0.616 | 0.622
NCI-H2342 | 0.922 | 1.09 | 0.961 | 0.981 | 0.436 | 0.341 | 0.325 | 0.288 | 0.331 | 0.623 | 0.618 | 0.564 | 0.722 |  |  |  |  | 
SW 900 | 0.876 | 0.78 | 0.783 | 0.92 | 0.544 | 0.625 | 0.645 | 0.855 | 0.434 | 0.603 | 0.573 | 0.416 | 0.569 |  |  |  |  | 
